Reference: patent US20250136602A1, “PROCESS FOR THE PREPARATION OF A PURE AMORPHOUS FORM OF UBROGEPANT” (MSN LABORATORIES PRIVATE LIMITED, F&D CENTER, priority 2021, published 2025)

Tests used:
Assay type in all cases: physicochemical
[1] = Long term stability of amorphous Ubrogepant (HPLC purity, PXRD); conditions: long term stability at 25 ± 2° C. under 60 ± 5% humidity condition upto 6 months
Experimental: (§1) Eighth aspect of the first embodiment, the accelerated and long-term stability data of amorphous Ubrogepant of formula-1 is outlined in Table-1 as follows: […]
(§2) Ubrogepant and its related substances were analyzed by HPLC with the following chromatographic conditions: Apparatus: A liquid chromatographic system is to be equipped with variable wavelength UV-Detector and integrator; Column: Xbridge C18 150×4.6 mm, 3.5 μm Ghost-Buster column: Ghost buster 50 mm×4.6 mm; Wavelength: 210 nm; Column temperature: 25° C.; Injection volume: 5 μL; Elution: Gradient; Diluent: Acetonitrile: Water; Needle wash: Diluent.
(§3) The PXRD analysis of compound of the present invention was carried out by using BRUKER-Axis/D8 ADVANCE (DAVINCI) X-Ray diffractometer using CuKα radiation of wavelength 1.5406 A°.

[2] = Accelerated stability of amorphous Ubrogepant (HPLC purity, PXRD); conditions: accelerated stability at 40 ± 2° C. under 75 ± 5% humidity condition upto 6 months
Experimental: as §1, §2, §3

[3] = Polymorphic stress study of amorphous Ubrogepant
Experimental: Ninth aspect of the first embodiment of the present invention, amorphous Ubrogepant is also stable under below Polymorphic stress study conditions:
as §3

PXRD Result [1]: stable
Purity by HPLC [1]: >99.75%
PXRD Result [2]: stable
Purity by HPLC [2]: >99.75%
Result (polymorphic stability) ([3]; hygroscopicity analysis (75 ± 5% RH), 24 hours): stable
Result (polymorphic stability) ([3]; stress study under 10 tons pressure, 3 mins): stable
Result (polymorphic stability) ([3]; thermal analysis at 60° ± 2° C., 24 hours): stable
Result (polymorphic stability) ([3]; under UV light at 254 nm, 24 hours): stable
SMILES: C[C@@H]1[C@H](c2ccccc2)C[C@H](NC(=O)c2cnc3c(c2)C[C@@]2(C3)C(=O)Nc3ncccc32)C(=O)N1CC(F)(F)F [Amorphous Ubrogepant, (3′S)—N-((3S,5S,6R)-6-methyl-2-oxo-5-phenyl-1-(2,2,2-trifluoroethyl)piperidin-3-yl)-2′-oxo-1′,2′,5,7-tetrahydrospiro [cyclopenta[b]pyridine-6,3′-pyrrolo[2,3-b]pyridine]-3-carboxamide]
